Assay results published in US20240090503A1, “FUNGICIDAL OXADIAZOLES AND THEIR MIXTURES” (FMC CORPORATION, priority 2020, published 2024).
Marks after values point to notes of the source that are not given here.

Assays:
Format in all cases: in vivo
[1] = test system: Phakopsora pachyrhizi (the causal agent of Asian soybean rust); assay: Test E: compounds alone and mixtures sprayed on soybean seedlings, Asian soybean rust, observed and Colby-expected disease control; parameters: key to Test E Obsd: 100 = 100% disease control, 0 = no disease control; conditions: for Test E Obsd: applied alone
Text: The general protocol for preparing test compositions for TEST E was as follows: Compound 316, Compound 376, Compound 225, Compound 229, Compound 257, Compound 394, Compound 506, Compound 507, Compound 508, Compound 509, Compound 511, Compound 512, methyl N-[[5-[1-[2,6-difluoro-4-(1-methylethyl)phenyl]-1H-pyrazol-3-yl]-2-methylphenyl]methyl]carbamate (b54.11a), methyl N-[[5-[l-(4-cyclopropyl-2,6-difluorophenyl)-1H-pyrazol-3-yl]-2-methylphenyl]methyl]carbamate (b54.11d), ethyl 1-[[4-[[(1Z)-2-ethoxy-3,3,3-trifluoro-1-propen-1-yl]oxy]phenyl]methyl]-1H-pyrazole-4-carboxylate (b54.12a), ethyl 1-[[4-[[2-(trifluoromethyl)-1,3-dioxolan-2-yl]methoxy]phenyl]methyl]-1H-pyrazole-4-carboxylate (b54.13a), azoxystrobin, benzovindiflupyr, bixafen, chlorothalonil, cyproconazole, epoxiconazole, fenpropidin, fenpropimorph, fluindapyr, flutriafol, fluxapyroxad, inpyrfluxam, metominostrobin, picoxystrobin, prothioconazole, pydiflumetofen, pyraclostrobin, tebuconazole and trifloxystrobin were obtained as unformulated, technical-grade materials. Copper hydroxide and mancozeb was obtained as a formulated product marketed under the trademarks KOCIDE 3000 and MANZATE, respectively. Unformulated materials were first dissolved in acetone and then suspended at the desired concentration (in ppm) in acetone and purified water (50/50 mixture by volume) containing 250 ppm of the surfactant Trem® 014 (polyhydric alcohol esters). Formulated materials were dispersed in sufficient water to give the desired concentration, and neither organic solvent nor surfactant was added to the suspension. The resulting test mixtures were then used in TEST E. The tests were run on four individual plants and the results reported as the mean average of the four plants.
The presence of a synergistic effect between two active ingredients can be established with the aid of the Colby equation (see Colby, S. R. “Calculating Synergistic and Antagonistic Responses of Herbicide Combinations”, Weeds, (1967), 15, 20-22):
Using the method of Colby, the presence of a synergistic interaction between two active ingredients is established by first calculating the predicted activity, p, of the mixture based on activities of the two components applied alone. If p is lower than the experimentally established effect, synergism has occurred. In the equation above, A is the fungicidal activity in percentage control of one component applied alone at rate x. The B term is the fungicidal activity in percentage control of the second component applied at rate y. The equation estimates p, the expected fungicidal activity of the mixture of A at rate x with B at rate y if their effects are strictly additive and no interaction has occurred.
The test mixture was sprayed to the point of run-off on soybean seedlings. The following day the seedlings were inoculated with a spore suspension of Phakopsora pachyrhizi (the causal agent of Asian soybean rust) and incubated in a saturated atmosphere at 22° C. for 24 h and then moved to a growth chamber at 22° C. for 8 days, after which time visual disease ratings were made.
Results for Test E are given below in Tables A-1 through K-2. Each table corresponds to a set of evaluations performed together at the same time. In each table, a rating of 100 indicates 100% disease control and a rating of 0 indicates no disease control (relative to the controls). Columns labeled “Obsd” indicate the average of results observed from test run on four individual plants. Columns labeled “Exp” indicate the expected value for each treatment mixture using the Colby equation, as described above.

[2] = test system: Phakopsora pachyrhizi (the causal agent of Asian soybean rust); assay: Test A: preventive spray on soybean seedlings, Asian soybean rust, visual disease rating; conditions: soybean seedlings, 100 = 100% disease control, 0 = no control
Summary of the method: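 Preventive test: soybean seedlings received a run-off spray of compound suspended at the set ppm in 50/50 acetone/water plus 250 ppm PEG400, and one day later a P. pachyrhizi spore inoculum. Visual scoring (0 none to 100 full disease control) followed 24 h saturated incubation and 8 days' growth chamber, both at 22° C.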

[3] = test system: Zymoseptoria tritici (the causal agent of wheat leaf blotch); assay: Test B: preventive spray on wheat seedlings, wheat leaf blotch, visual disease rating; conditions: wheat seedlings, 100 = 100% disease control
Summary of the method: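 This is a preventive test: spray application preceded Zymoseptoria tritici spore inoculation by one day. Test suspensions were in acetone/water with 250 ppm PEG400 surfactant, at the listed ppm rate. After 48 h saturated humidity at 24° C and 17 days at 20° C, visual ratings scored control from 0 to 100%.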

[4] = test system: Puccinia recondita f. sp. tritici (the causal agent of wheat leaf rust); assay: Test C: preventive spray on wheat seedlings, wheat leaf rust, visual disease rating; conditions: wheat seedlings, 100 = 100% disease control, 0 = no control
Summary of the method: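 Wheat seedlings sprayed to run-off with compound in acetone/water (50/50) with 250 ppm PEG400, then inoculated with spores the following day. After 24 h saturated humidity at 20° C. and 6 days in growth chamber at 20° C., disease rated visually as % control relative to untreated controls.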

SMILES	Test A disease control rating ([2]; 10 ppm test suspension)	Test B disease control rating ([3]; 250 ppm test suspension)	Test C disease control rating ([4]; 10 ppm test suspension)	also measured
Cn1cc(C(=O)Nc2cccc3c2[C@@H]2CC[C@H]3C2=C(Cl)Cl)c(C(F)F)n1 (racemic) [benzovindiflupyr, reference compound]	–	–	–	Test E Obsd (disease control rating) ([1]; Table F-1, component (b) alone: benzovindiflupyr 0.606, prothioconazole 10.165, chlorothalonil 138.129 ppm): 67%; Test E Obsd (disease control rating) ([1]; Table F-1, component (b) alone: benzovindiflupyr 0.980, prothioconazole 16.339, chlorothalonil 222.081 ppm): 67%; Test E Obsd (disease control rating) ([1]; Table F-2, component (b) alone: benzovindiflupyr 0.606, prothioconazole 10.165, chlorothalonil 138.129 ppm): 67%; Test E Obsd (disease control rating) ([1]; Table F-2, component (b) alone: benzovindiflupyr 0.980, prothioconazole 16.339, chlorothalonil 222.081 ppm): 67%; Test E Obsd ([1]; 0.606 ppm): 51; Test E Obsd ([1]; 0.980 ppm): 68
CO/C=C(/C(=O)OC)c1ccccc1Oc1cc(Oc2ccccc2C#N)ncn1 [azoxystrobin, reference compound]	–	–	–	Test E Obsd (disease control rating) ([1]; Table D-1, component (b) alone: cyproconazole 37.333, azoxystrobin 95.873, trifloxystrobin 20.511 ppm): 70%; Test E Obsd (disease control rating) ([1]; Table D-1, component (b) alone: cyproconazole 64.883, azoxystrobin 169.226, trifloxystrobin 35.310 ppm): 88%; Test E Obsd (disease control rating) ([1]; Table D-2, component (b) alone: cyproconazole 37.333, azoxystrobin 95.873, trifloxystrobin 20.511 ppm): 70%; Test E Obsd (disease control rating) ([1]; Table D-2, component (b) alone: cyproconazole 64.883, azoxystrobin 169.226, trifloxystrobin 35.310 ppm): 88%
O=C(NCC(F)(F)F)c1coc(COc2ccc(-c3noc(C(F)(F)F)n3)cc2)n1 [compound 465]	100%	0* %	80%	–
O=C(NCCn1cccn1)c1coc(COc2ccc(-c3noc(C(F)(F)F)n3)cc2)n1 [compound 466]	100%	3* %	55%	–
O=C(NCCC(F)(F)F)c1coc(COc2ccc(-c3noc(C(F)(F)F)n3)cc2)n1 [compound 467]	97%	6* %	68%	–
N#CCNC(=O)c1coc(COc2ccc(-c3noc(C(F)(F)F)n3)cc2)n1 [compound 468]	84%	22* %	0%	–
COCCNC(=O)c1csc(COc2ccc(-c3noc(C(F)(F)F)n3)cc2)n1 [compound 469]	96%	65* %	86%	–
O=C(NCC(F)(F)F)c1csc(COc2ccc(-c3noc(C(F)(F)F)n3)cc2)n1 [compound 470]	100%	0* %	94%	–
O=C(NCCn1cccn1)c1csc(COc2ccc(-c3noc(C(F)(F)F)n3)cc2)n1 [compound 471]	77%	15* %	80%	–
O=C(NCCC(F)(F)F)c1csc(COc2ccc(-c3noc(C(F)(F)F)n3)cc2)n1 [compound 472]	77%	22* %	0%	–
N#CCNC(=O)c1csc(COc2ccc(-c3noc(C(F)(F)F)n3)cc2)n1 [compound 473]	94%	28* %	89%	–
O=C(c1csc(Cc2ccc(-c3noc(C(F)(F)F)n3)cc2)n1)N1CCOCC1 [compound 487]	100%	–	100%	Test B disease control rating ([3]; 100 ppm test suspension (double asterisk)): 98** %
CCNC(=O)c1csc(Cc2ccc(-c3noc(C(F)(F)F)n3)cc2)n1 [compound 488]	100%	99* %	100%	–
COCC(COC)NC(=O)c1csc(Cc2ccc(-c3noc(C(F)(F)F)n3)cc2)n1 [compound 489]	100%	92* %	99%	–
CON=C(CCl)COC(=O)c1cnn(Cc2ccc(-c3noc(C(F)(F)F)n3)cc2)c1 [compound 494]	100%	47* %	0%	–
O=C(CCl)COC(=O)c1cnn(Cc2ccc(-c3noc(C(F)(F)F)n3)cc2)c1 [compound 495]	100%	43* %	0%	–
CC1(C)OCC(COC(=O)c2cnn(Cc3ccc(-c4noc(C(F)(F)F)n4)cc3)c2)O1 (stereo not shown) [compound 496]	100%	48* %	0%	–
OC(c1ccc(-c2noc(C(F)(F)F)n2)cc1)c1cccc(F)c1 (stereo not shown) [compound 498]	100%	43* %	0%	–
OC(c1ccc(-c2noc(C(F)(F)F)n2)cc1)c1cccc(Cl)c1 (stereo not shown) [compound 499]	–	48* %	–	Test A disease control rating ([2]; 250 ppm test suspension): 100%; Test C disease control rating ([4]; 250 ppm test suspension): 100%
OC(c1ccc(F)cc1)c1ccc(-c2noc(C(F)(F)F)n2)cc1 (stereo not shown) [compound 500]	–	5* %	–	Test A disease control rating ([2]; 250 ppm test suspension): 100%; Test C disease control rating ([4]; 250 ppm test suspension): 100%
CN(C)C(=O)C1=NOC(COc2cccc(-c3noc(C(F)(F)F)n3)c2)C1 (stereo not shown) [compound 502]	–	–	–	pest or weed control at 250 ppm ([2]; Phakopsora pachyrhizi, 216 h, 250 ppm test suspension): 100%; pest or weed control at 250 ppm ([3]; Zymoseptoria tritici, 456 h, 250 ppm test suspension): 62%; pest or weed control at 250 ppm ([4]; Puccinia recondita, 168 h, 250 ppm test suspension): 100%
